Several values for one entry are separate records, joined by “and”; a condition that tells them apart may be missing. Identical values can stand only once. Counter-ions that a name gives are not always drawn.
Experiments:
[1] = Stability in the neat state at 40°C (positive chlorine by thiosulfate titration); type: physicochemical; settings: HYDROCHLORIDE
Source text: ^a Weight of sample analyzed.
^b Volume of 10^^-2 N sodium thiosulfate required to titrate
the sample at time (T).
^c Percentage of positive chlorine in the sample analyzed.

[2] = test system: Kleb. pneumoniae ATCC 10031; test: Bactericidal endpoint (time for complete sterilization), ATCC 10031; type: cell-based
Source text: (§1) The procedure employed to determine the antibacterial activity of 3-chloro-2,2,4,4-tetramethyl-tetrahydro1,3-oxazolidine and 3-chloro-2,2-[spiro-1'-methyl-4'-piperidinyl]-4,4-dimethyl-1,3-oxazolidinewas based primarily on a modification of the serial dilution method of analysis. However, instead of determining the minimum inhibitory concentration parameters for the compound investigated, applicants alternatively chose to determine the bactericidal endpoint for a given concentration of the compound investigated. Consequently, applicants' studies were established to determine the time required for complete sterilization of the micro-organism tested, when exposed to a given concentration of the compound investigated.
(§2) A stock solution of each compound identified above was prepared using an appropriate buffered solution.
(§3) For screening in the absence of a denaturing agent (e.g., horse serum) an equal volume of distilled water and the resulting solution was subjected to the screen.
(§4) For screening in the presence of a denaturing agent, a volume of the stock solution was diluted using an equal volume of 10% horse serum. When necessary, the final solution was adjusted to the desired pH using 1N HCl and the solution was permitted to stand at room temperature for thirty minutes prior to the screening procedure.
(§5) To 5 ml of the stock solution being evaluated, there was added 0.2 ml of an overnight broth culture containing the particular micro-organism being investigated (see above). At time intervals of 0.5, 1, 2, 3, 4, 5, . . . minutes, a loop of this suspension was subcultured into 5 ml of a sterile nutrient broth. All the samples were then incubated at 37°C for seven days with daily observation for evidence of bacterial growth. The time interval reported is for that sample in which no bacterial growth was observed after the incubation period.

[3] = test system: Pseud. aeruginosa ATCC 9027; test: Bactericidal endpoint (time for complete sterilization), ATCC 9027; type: cell-based; settings: for Antibacterial activity, time, 9027: 0.5 M NaH2PO4 pH 7.0
Source text: as §1, §2, §3, §4, §5

[4] = Stability analysis in buffered solution (half-life); type: physicochemical
[5] = test system: Bord. bronchiseptica ATCC 4617; test: Bactericidal endpoint (time for complete sterilization), ATCC 4617; type: cell-based
Source text: as §1, §2, §3, §4, §5

[6] = test system: E. coli ATCC 10536; test: Bactericidal endpoint (time for complete sterilization), ATCC 10536; type: cell-based
Source text: as §1, §2, §3, §4, §5

[7] = test system: Staph. epidermidis ATCC 12228; test: Bactericidal endpoint (time for complete sterilization), ATCC 12228; type: cell-based
Source text: as §1, §2, §3, §4, §5

[8] = test system: Staph. aureus ATCC 6538; test: Bactericidal endpoint (time for complete sterilization), ATCC 6538; type: cell-based
Source text: as §1, §2, §3, §4, §5

[9] = test system: 6501; test: Bactericidal endpoint (time for complete sterilization), 6501; type: cell-based
Source text: as §1, §2, §3, §4, §5

[10] = 0.1M Na2B4O7 pH 8.8, H2O, 8.13 × 10^-3 M (1333 ppm)
[11] = 0.1M Na2B4O7 pH 8.8, Serum, 8.13 × 10^-3 M (1333 ppm)
[12] = 0.1M NaH2PO4 pH 7.00, H2O, 8.92 × 10^-3 M (1463 ppm)
[13] = 0.1M NaH2PO4 pH 7.00, Serum, 8.92 × 10^-3 M (1463 ppm)
[14] = 0.1M NaOAc pH 4.6, H2O, 8.26 × 10^-3 M (1355 ppm)
[15] = 0.1M NaOAc pH 4.6, Serum, 8.26 × 10^-3 M (1355 ppm)
[16] = 0.1 M NaOAc pH 4.6, H2O, 6.52 × 10^-3 M (1428 ppm)
[17] = 0.1 M NaOAc pH 4.6, Serum, 5.69 × 10^-3 M (1246 ppm)
[18] = 0.5 M NaH2PO4 pH 7.0, H2O, 20.75 × 10^-3 M (4525 ppm)
[19] = 0.5 M NaH2PO4 pH 7.0, Serum, 19.88 × 10^-3 M (4334 ppm)
[20] = 0.5 M NaOAc pH 4.6, H2O, 21.00 × 10^-3 M (4578 ppm)
[21] = 0.5 M NaOAc pH 4.6, Serum, 20.50 × 10^-3 M (4469 ppm)

## CN1CCC2(CC1)OCC(C)(C)N2Cl [3-CHLORO-2,2-[SPIRO-1'-METHYL-4'-PIPERIDINIUM]4,4-DIMETHYL-1,3-OXAZOLIDINE HYDROCHLORIDE]
[1]; 0 days
  %Cl (percentage of positive chlorine in the sample analyzed): 13.7% and 13.1%
[1]; 1 day
  %Cl (percentage of positive chlorine in the sample analyzed): 12.3% and 12.5%
[1]; 2 days
  %Cl (percentage of positive chlorine in the sample analyzed): 12.3% and 11.9%
[1]; 3 days
  %Cl (percentage of positive chlorine in the sample analyzed): 12.5% and 12.2%
[1]; 4 days
  %Cl (percentage of positive chlorine in the sample analyzed): 12.1% and 12.3%
[1]; 5 days
  %Cl (percentage of positive chlorine in the sample analyzed): 12.3% and 12.4%
[1]; 7 days
  %Cl (percentage of positive chlorine in the sample analyzed): 12.2% and 12.1%
[1]; 10 days
  %Cl (percentage of positive chlorine in the sample analyzed): 11.9% and 11.8%
[1]; 14 days
  %Cl (percentage of positive chlorine in the sample analyzed): 12.1% and 11.8%
[1]; 21 days
  %Cl (percentage of positive chlorine in the sample analyzed): 12.0% and 12.1%
[1]; 28 days
  %Cl (percentage of positive chlorine in the sample analyzed): 11.5% and 11.6%
[1]; 35 days
  %Cl (percentage of positive chlorine in the sample analyzed): 11.8% and 11.6%
[1]; 51 days
  %Cl (percentage of positive chlorine in the sample analyzed): 9.5%

## CC1(C)COC(C)(C)N1Cl [3-chloro-2,2,4,4-tetramethyl-tetrahydro-1,3-oxazolidine]
[2]; [10]
  Germicidal activity time, 10031: 4 min
[2]; [11]
  Germicidal activity time, 10031: 9 min
[2]; [12]
  Germicidal activity time, 10031: 0.5 min
[2]; [13]
  Germicidal activity time, 10031: 5 min
[2]; [14]
  Germicidal activity time, 10031: 0.5 min
[2]; [15]
  Germicidal activity time, 10031: > 10 min
[3]; [10]
  Germicidal activity time, 9027: 2 min
[3]; [11]
  Germicidal activity time, 9027: 4 min
[3]; [12]
  Germicidal activity time, 9027: 1 min
[3]; [13]
  Germicidal activity time, 9027: 7 min
[3]; [14]
  Germicidal activity time, 9027: 0.5 min
[3]; [15]
  Germicidal activity time, 9027: 4 min
[4]; 0.1 M Na2B4O7 pH 9.3, 40 °C, initial concentration 1.52 × 10^-3 M
  half-life at 1520 µM: ~5 h
[4]; 0.1 M Na2B4O7 pH 9.3, 40 °C, initial concentration 2.49 × 10^-3 M
  half-life at 2490 µM: ~4.6 h
[4]; 0.1 M Na2B4O7 pH 9.3, 40 °C, initial concentration 5.98 × 10^-3 M
  half-life at 5980 µM: ~3.3 h
[4]; 0.1 M NaH2PO4 pH 7.0, 40 °C, initial concentration 1.68 × 10^-3 M
  half-life at 1680 µM: ~70 h
[4]; 0.1 M NaH2PO4 pH 7.0, 40 °C, initial concentration 3.05 × 10^-3 M
  half-life at 3050 µM: ~54 h
[4]; 0.1 M NaH2PO4 pH 7.0, 40 °C, initial concentration 6.70 × 10^-3 M
  half-life at 6700 µM: ~54 h
[4]; 0.1 M NaOAc pH 4.6, 40 °C, initial concentration 1.88 × 10^-3 M
  half-life at 1880 µM: 2.2 h
[4]; 0.1 M NaOAc pH 4.6, 40 °C, initial concentration 2.59 × 10^-3 M
  half-life at 2590 µM: 2.2 h
[4]; 0.1 M NaOAc pH 4.6, 40 °C, initial concentration 5.47 × 10^-3 M
  half-life at 5470 µM: 2.6 h
[4]; H2O, initial concentration 6.23 × 10^-3 M
  half-life at 6230 µM: ~58 h
[5]; [10]
  Germicidal activity time, 4617: 3 min
[5]; [11]
  Germicidal activity time, 4617: 8 min
[5]; [12]
  Germicidal activity time, 4617: 1 min
[5]; [13]
  Germicidal activity time, 4617: > 10 min
[5]; [14]
  Germicidal activity time, 4617: 0.5 min
[5]; [15]
  Germicidal activity time, 4617: 6 min
[6]; [10]
  Germicidal activity time, 10536: 2 min
[6]; [11]
  Germicidal activity time, 10536: 4 min
[6]; [12]
  Germicidal activity time, 10536: 0.5 min
[6]; [13]
  Germicidal activity time, 10536: 3 min
[6]; [14]
  Germicidal activity time, 10536: 0.5 min
[6]; [15]
  Germicidal activity time, 10536: 3 min
[7]; [10]
  Germicidal activity time, 12228: > 5 min
[7]; [11]
  Germicidal activity time, 12228: > 10 min
[7]; [12]
  Germicidal activity time, 12228: 1 min
[7]; [13]
  Germicidal activity time, 12228: 6 min
[7]; [14]
  Germicidal activity time, 12228: 0.5 min
[7]; [15]
  Germicidal activity time, 12228: > 10 min
[8]; [10]
  Germicidal activity time, 6538: > 5 min
[8]; [11]
  Germicidal activity time, 6538: > 10 min
[8]; [12]
  Germicidal activity time, 6538: 3 min
[8]; [13]
  Germicidal activity time, 6538: > 10 min
[8]; [14]
  Germicidal activity time, 6538: 0.5 min
[8]; [15]
  Germicidal activity time, 6538: > 10 min

## CN1CCC2(CC1)OCC(C)(C)N2Cl [3-chloro-2,2-[spiro-1'-methyl-4'-piperidinyl]-4,4-dimethyl-1,3-oxazolidine]
[2]; [16]
  Antibacterial activity, time, 10031: 0.5 min
[2]; [17]
  Antibacterial activity, time, 10031: 7 min
[2]; [18]
  Antibacterial activity, time, 10031: 1 min
[2]; [19]
  Antibacterial activity, time, 10031: 8 min
[2]; [20]
  Antibacterial activity, time, 10031: 0.5 min
[2]; [21]
  Antibacterial activity, time, 10031: 0.5 min
[3]; [16]
  Antibacterial activity, time, 9025: 0.5 min
[3]; [17]
  Antibacterial activity, time, 9025: > 10 min
[3]; H2O, 20.75 × 10^-3 M (4525 ppm)
  Antibacterial activity, time, 9027: 1 min
[3]; Serum, 19.88 × 10^-3 M (4334 ppm)
  Antibacterial activity, time, 9027: 10 min
[3]; [20]
  Antibacterial activity, time, 9025: 0.5 min
[3]; [21]
  Antibacterial activity, time, 9025: 1 min
[9]; [16]
  Antibacterial activity, time, 6501: 0.5 min
[9]; [17]
  Antibacterial activity, time, 6501: 3 min
[9]; [18]
  Antibacterial activity, time, 6501: 1 min
[9]; [19]
  Antibacterial activity, time, 6501: 7 min
[9]; [20]
  Antibacterial activity, time, 6501: 0.5 min
[9]; [21]
  Antibacterial activity, time, 6501: 0.5 min
[5]; [18]
  Antibacterial activity, time, 4617: 0.5 min
[5]; [19]
  Antibacterial activity, time, 4617: 5 min
[5]; [20]
  Antibacterial activity, time, 4617: 0.5 min
[5]; [21]
  Antibacterial activity, time, 4617: 1 min
[6]; [16]
  Antibacterial activity, time, 10536: 0.5 min
[6]; [17]
  Antibacterial activity, time, 10536: 2 min
[6]; [18]
  Antibacterial activity, time, 10536: 0.5 min
[6]; [19]
  Antibacterial activity, time, 10536: 7 min
[6]; [20]
  Antibacterial activity, time, 10536: 0.5 min
[6]; [21]
  Antibacterial activity, time, 10536: 0.5 min
[7]; [16]
  Antibacterial activity, time, 12228: 1 min
[7]; [17]
  Antibacterial activity, time, 12228: > 10 min
[7]; [18]
  Antibacterial activity, time, 12228: 1 min
[7]; [19]
  Antibacterial activity, time, 12228: 5 min
[7]; [20]
  Antibacterial activity, time, 12228: 0.5 min
[7]; [21]
  Antibacterial activity, time, 12228: 2 min
[8]; [16]
  Antibacterial activity, time, 6538: 5 min
[8]; [17]
  Antibacterial activity, time, 6538: > 10 min
[8]; [18]
  Antibacterial activity, time, 6538: 1 min
[8]; [19]
  Antibacterial activity, time, 6538: > 10 min
[8]; [20]
  Antibacterial activity, time, 6538: 0.5 min
[8]; [21]
  Antibacterial activity, time, 6538: 3 min

— patent publication US3954985A, “Method for inhibiting bacterial growth with certain selected 3-chloro-tetrahydro-1,3-oxazines or oxazolidines” (INTERx Research Corporation, priority 1975, dated 1976)
